Laboratory results taken from patent US11945783B1, “4-(4,5-bis(4-bromophenyl)-2-(4-methoxyphenyl)-1H-imidazol-1-yl)butanoic acid as an antimicrobial compound” (KING FAISAL UNIVERSITY, priority 2023, dated 2024).

Key:
Type in all cases: cell-based
Staphylococcus aureus = assay: Agar plate disc-diffusion, antibacterial; conditions: nutrient agar, 37° C., 48 hours
Experimental: (§1) The agar plate disc-diffusion method was applied. […] The discs were then placed onto the surface of agar plates (nutrient agar for bacteria and Sabouraud's dextrose agar for fungi) seeded with the test organism. Each plate contained 15 mL of the agar medium, previously seeded with 0.2 mL of the broth culture of each organism pregrown for 18 hours. The plates were incubated at 37° C. for 48 hours, and 72 hours for fungi. The inhibition zones was measured in mm. Discs impregnated with DMSO were used as a control, and its inhibition zone was subtracted from the tested compound actual inhibition zone.

Bacillus cereus = assay: Agar plate disc-diffusion, antibacterial; conditions: nutrient agar, 37° C., 48 hours
Experimental: as §1

Escherichia coli = assay: Agar plate disc-diffusion, antibacterial; conditions: nutrient agar, 37° C., 48 hours
Experimental: as §1

Pseudomonas aeruginosa = assay: Agar plate disc-diffusion, antibacterial; conditions: nutrient agar, 37° C., 48 hours
Experimental: as §1

Aspergillus flavus = assay: Agar plate disc-diffusion, antifungal; conditions: Sabouraud's dextrose agar, 72 hours
Experimental: as §1

[1] = tested on: Chrysosporium keratinophilum; assay: Agar plate disc-diffusion, antifungal; conditions: Sabouraud's dextrose agar, 72 hours
Experimental: as §1

[2] = A = concentration of comp. = 10,000 μL
[3] = B = concentration of comp. = 30,000 μL
[4] = C = concentration of comp. = 50,000 μL
[5] = A = concentration of comp. = 10,000 μg/mL

Row | Compound | inhibition zone (Staphylococcus aureus; [2]) [mm] | inhibition zone (Staphylococcus aureus; [3]) [mm] | inhibition zone (Staphylococcus aureus; [4]) [mm] | inhibition zone (Bacillus cereus; [2]) [mm] | inhibition zone (Bacillus cereus; [3]) [mm] | inhibition zone (Bacillus cereus; [4]) [mm] | inhibition zone (Escherichia coli; [2]) [mm] | inhibition zone (Escherichia coli; [3]) [mm] | inhibition zone (Escherichia coli; [4]) [mm] | inhibition zone (Pseudomonas aeruginosa; [5]) [mm] | inhibition zone (Pseudomonas aeruginosa; [3]) [mm] | inhibition zone (Pseudomonas aeruginosa; [4]) [mm] | inhibition zone (Aspergillus flavus; [2]) [mm] | inhibition zone (Aspergillus flavus; [3]) [mm] | inhibition zone (Aspergillus flavus; [4]) [mm] | inhibition zone [1, 2] [mm] | inhibition zone [1, 3] [mm] | inhibition zone [1, 4] [mm]
1 | O=C(O)c1cn(C2CC2)c2cc(N3CCNCC3)c(F)cc2c1=O [Cip., ciprofloxacin] | 43 | 44 | 53 | 29 | 31 | 42 | 30 | 39 | 60 | 29 | 30 | 53 | 29 | 32 | 42 | 29 | 30 | 53
2 | COc1ccc(-c2nc(-c3ccc(Br)cc3)c(-c3ccc(Br)cc3)n2CCCC(=O)O)cc1 [V, 4-(4,5-bis(4-bromophenyl)-2-(4-methoxyphenyl)-1H-imidazol-1-yl)butanoic acid] | 18 | 20 | 30 | 28 | 30 | 41 | 26 | 35 | 47 | 21 | 24 | 35 | 19 | 21 | 32 | 26 | 28 | 50
